Laboratory results taken from US20250282827A1, “LIPIDATED POLYMYXIN ANALOGUES” (priority 2021, published 2025).
In brackets after ≈: the same amount, converted by molar mass. Where two headings read alike, the source gives them in different places. Positions of bridges follow the written chain, without caps; N, C: chain ends. Non-standard residues stand in square brackets, D forms with d. Residues, ends and D or L forms follow the SMILES beside them. *: point of attachment. Ethyl(2-propionyloxy) = CCC(=O)OCC*; Ethyl(2-OPiv) = CC(C)(C)C(=O)OCC*; Ethyl(2-OBz) = O=C(OCC*)c1ccccc1; Lauroyl = CCCCCCCCCCCC(=O)*; hCys = N[C@@H](CCS)C(=O)O; Octanoyl = CCCCCCCC(=O)*; Dab = NCC[C@H](N)C(=O)O; X10 = CCC(C)CC(=O)OCC*; X4 = CCCCCCCC(=O)OCC*; X5 = CCC(C)C(=O)OCC*; X9 = CC(C)CC(=O)OCC*; X1 = CCCCCC(=O)OCC*; X13 = CCCCC(=O)OCC*; Mpa = O=C(O)CCS

Columns and labels:
[1] = system: A. baumannii ATCC 19606; assay type: cell-based, Acinetobacter baumannii
Description: (§1) All 81 compounds prepared in Examples 2 and 3 underwent screening against a panel of Gram-negative bacterium to assess their ability to inhibit bacterial growth. […] The median value is presented.

[2] = system: P. aeruginosa ATCC 27853; assay type: cell-based, Pseudomonas aeruginosa
Description: as §1

[3] = system: K. pneumoniae ATCC 700603; assay type: cell-based, Klebsiella pneumoniae
Description: as §1

[4] = system: K. pneumoniae ATCC MS6671; assay type: cell-based, Klebsiella pneumoniae
Description: as §1

[5] = system: K. pneumoniae ATCC 33495; assay type: cell-based, Klebsiella pneumoniae
Description: as §1

[6] = system: E. coli ATCC 25922; assay type: cell-based, Escherichia coli
Description: as §1

[7] = system: E. coli ATCC MS8345; assay type: cell-based, Escherichia coli
Description: as §1
Expansion of the polymyxin macrocycle by substituting […]) offered little advantage in antimicrobial activity but was generally well tolerated although for A. baumanni and P. aeruginosa this was detrimental.

[8] = colistin-resistant strain, median of triplicate

| Compound | MIC A. baumannii ATCC 19606 ([1]; median of triplicate) [µg/mL] | MIC P. aeruginosa ATCC 27853 ([2]; median of triplicate) [µg/mL] | MIC K. pneumoniae ATCC 700603 ([3]; median of triplicate) [µg/mL] | MIC K. pneumoniae ATCC MS6671 ([4]; median of triplicate) [µg/mL] | MIC K. pneumoniae ATCC 33495 ([5]; median of triplicate) [µg/mL] | MIC E. coli ATCC 25922 ([6]; median of triplicate) [µg/mL] | MIC E. coli ATCC MS8345 [7, 8] [µg/mL] | MIC A. baumannii ATCC 19606 ([1]; ATCC 19606) [µg/mL] | MIC P. aeruginosa ATCC 27853 ([2]; ATCC 27853) [µg/mL] | MIC K. pneumoniae ATCC 700603 ([3]; ATCC 700603) [µg/mL] | MIC K. pneumoniae ATCC MS6671 ([4]; ATCC MS6671) [µg/mL] | MIC K. pneumoniae ATCC 33495 ([5]; ATCC 33495) [µg/mL] | MIC E. coli ATCC 25922 ([6]; ATCC 25922) [µg/mL] | MIC E. coli ATCC MS8345 ([7]; ATCC MS8345) [µg/mL] |
| --- | --- | --- | --- | --- | --- | --- | --- | --- | --- | --- | --- | --- | --- | --- |
| CCCCCCCC(=O)N[C@@H](CSCCOC(=O)c1ccccc1)C(=O)N[C@@H](CCN)C(=O)N[C@H](C(=O)N[C@@H](CCN)C(=O)N[C@H]1CCNC(=O)[C@H]([C@@H](C)O)NC(=O)[C@H](CCN)NC(=O)[C@H](CCN)NC(=O)[C@H](CSCCOC(=O)c2ccccc2)NC(=O)[C@@H](Cc2ccccc2)NC(=O)[C@H](CCN)NC1=O)[C@@H](C)O [Compound 51] (Octanoyl-C(Ethyl(2-OBz))[Dab]T[Dab][Dab][Dab][dF]C(Ethyl(2-OBz))[Dab][Dab]T; lactam 5-C) | 1 to 2 | 2 (≈ 1.27 µM) | 2 to 4 | >32 | 2 (≈ 1.27 µM) | 2 (≈ 1.27 µM) | 2 to 4 | – | – | – | – | – | – | – |
| CCCCCCCCCCCC(=O)N[C@@H](CSCCOC(=O)c1ccccc1)C(=O)N[C@@H](CCN)C(=O)N[C@H](C(=O)N[C@@H](CCN)C(=O)N[C@H]1CCNC(=O)[C@H]([C@@H](C)O)NC(=O)[C@H](CCN)NC(=O)[C@H](CCN)NC(=O)[C@H](CSCCOC(=O)c2ccccc2)NC(=O)[C@@H](Cc2ccccc2)NC(=O)[C@H](CCN)NC1=O)[C@@H](C)O [Compound 52] (Lauroyl-C(Ethyl(2-OBz))[Dab]T[Dab][Dab][Dab][dF]C(Ethyl(2-OBz))[Dab][Dab]T; lactam 5-C) | 2 to 4 | 4 (≈ 2.45 µM) | 4 (≈ 2.45 µM) | >32 | 2 to 4 | 2 to 4 | 2 to 4 | – | – | – | – | – | – | – |
| CCC(=O)OCCSCCC(=O)N[C@@H](CCN)C(=O)N[C@H](C(=O)N[C@@H](CCN)C(=O)N[C@H]1CCNC(=O)[C@H]([C@@H](C)O)NC(=O)[C@H](CCN)NC(=O)[C@H](CCN)NC(=O)[C@H](CC(C)C)NC(=O)[C@@H](Cc2ccccc2)NC(=O)[C@H](CCN)NC1=O)[C@@H](C)O [Compound 59] ([Mpa](Ethyl(2-propionyloxy))[Dab]T[Dab][Dab][Dab][dF]L[Dab][Dab]T; lactam 5-C) | – | – | – | – | – | – | – | 32 (≈ 25.6 µM) | 2 (≈ 1.6 µM) | 1 (≈ 0.799 µM) | >32 | 0.5 (≈ 0.4 µM) | 0.5 (≈ 0.4 µM) | >32 |
| CCC(=O)OCCSCC[C@H](N)C(=O)N[C@@H](CCN)C(=O)N[C@H](C(=O)N[C@@H](CCN)C(=O)N[C@H]1CCNC(=O)[C@H]([C@@H](C)O)NC(=O)[C@H](CCN)NC(=O)[C@H](CCN)NC(=O)[C@H](CC(C)C)NC(=O)[C@@H](Cc2ccccc2)NC(=O)[C@H](CCN)NC1=O)[C@@H](C)O [Compound 60] (H-[hCys](Ethyl(2-propionyloxy))[Dab]T[Dab][Dab][Dab][dF]L[Dab][Dab]T; lactam 5-C) | – | – | – | – | – | – | – | 2 (≈ 1.56 µM) | 0.5 (≈ 0.39 µM) | 0.25 to 0.5 | >32 | 0.25 (≈ 0.195 µM) | 0.25 (≈ 0.195 µM) | 16 (≈ 12.5 µM) |
| CCCCC(=O)OCCSC[C@@H](N)C(=O)N[C@H](C(=O)N[C@@H](CCN)C(=O)N[C@H]1CCNC(=O)[C@H]([C@@H](C)O)NC(=O)[C@H](CCN)NC(=O)[C@H](CCN)NC(=O)[C@H](CC(C)C)NC(=O)[C@@H](Cc2ccccc2)NC(=O)[C@H](CCN)NC1=O)[C@@H](C)O [Compound 90] (H-[dC](X13)T[Dab][Dab][Dab][dF]L[Dab][Dab]T; lactam 4-C) | – | – | – | – | – | – | – | >16 | 4 (≈ 3.35 µM) | 4 (≈ 3.35 µM) | >32 | 2 (≈ 1.67 µM) | 4 (≈ 3.35 µM) | >32 |
| CCCCCC(=O)OCCSC[C@@H](N)C(=O)N[C@H](C(=O)N[C@@H](CCN)C(=O)N[C@H]1CCNC(=O)[C@H]([C@@H](C)O)NC(=O)[C@H](CCN)NC(=O)[C@H](CCN)NC(=O)[C@H](CC(C)C)NC(=O)[C@@H](Cc2ccccc2)NC(=O)[C@H](CCN)NC1=O)[C@@H](C)O [Compound 91] (H-[dC](X1)T[Dab][Dab][Dab][dF]L[Dab][Dab]T; lactam 4-C) | – | – | – | – | – | – | – | 4 (≈ 3.31 µM) | 2 (≈ 1.65 µM) | 2 (≈ 1.65 µM) | >32 | 1 (≈ 0.827 µM) | 1 (≈ 0.827 µM) | 16 (≈ 13.2 µM) |
| CCCCCCCC(=O)OCCSC[C@@H](N)C(=O)N[C@H](C(=O)N[C@@H](CCN)C(=O)N[C@H]1CCNC(=O)[C@H]([C@@H](C)O)NC(=O)[C@H](CCN)NC(=O)[C@H](CCN)NC(=O)[C@H](CC(C)C)NC(=O)[C@@H](Cc2ccccc2)NC(=O)[C@H](CCN)NC1=O)[C@@H](C)O [Compound 92] (H-[dC](X4)T[Dab][Dab][Dab][dF]L[Dab][Dab]T; lactam 4-C) | – | – | – | – | – | – | – | 2 (≈ 1.62 µM) | 2 (≈ 1.62 µM) | 2 (≈ 1.62 µM) | >32 | 2 (≈ 1.62 µM) | 1 (≈ 0.809 µM) | 16 (≈ 12.9 µM) |
| CC(C)C[C@@H]1NC(=O)[C@@H](Cc2ccccc2)NC(=O)[C@H](CCN)NC(=O)[C@@H](NC(=O)[C@H](CCN)NC(=O)[C@@H](NC(=O)[C@H](N)CSCCOC(=O)C(C)(C)C)[C@@H](C)O)CCNC(=O)[C@H]([C@@H](C)O)NC(=O)[C@H](CCN)NC(=O)[C@H](CCN)NC1=O [Compound 93] (H-[dC](Ethyl(2-OPiv))T[Dab][Dab][Dab][dF]L[Dab][Dab]T; lactam 4-C) | – | – | – | – | – | – | – | 4 (≈ 3.35 µM) | 2 (≈ 1.67 µM) | 2 (≈ 1.67 µM) | >32 | 1 (≈ 0.837 µM) | 1 (≈ 0.837 µM) | 32 (≈ 26.8 µM) |
| CCC(C)C(=O)OCCSC[C@@H](N)C(=O)N[C@H](C(=O)N[C@@H](CCN)C(=O)N[C@H]1CCNC(=O)[C@H]([C@@H](C)O)NC(=O)[C@H](CCN)NC(=O)[C@H](CCN)NC(=O)[C@H](CC(C)C)NC(=O)[C@@H](Cc2ccccc2)NC(=O)[C@H](CCN)NC1=O)[C@@H](C)O (some centres unmarked) [Compound 95] (H-[dC](X5)T[Dab][Dab][Dab][dF]L[Dab][Dab]T; lactam 4-C) | – | – | – | – | – | – | – | 4 (≈ 3.35 µM) | 1 (≈ 0.837 µM) | 2 (≈ 1.67 µM) | >32 | 1 (≈ 0.837 µM) | 1 (≈ 0.837 µM) | 16 (≈ 13.4 µM) |
| CC(C)CC(=O)OCCSC[C@@H](N)C(=O)N[C@H](C(=O)N[C@@H](CCN)C(=O)N[C@H]1CCNC(=O)[C@H]([C@@H](C)O)NC(=O)[C@H](CCN)NC(=O)[C@H](CCN)NC(=O)[C@H](CC(C)C)NC(=O)[C@@H](Cc2ccccc2)NC(=O)[C@H](CCN)NC1=O)[C@@H](C)O [Compound 96] (H-[dC](X9)T[Dab][Dab][Dab][dF]L[Dab][Dab]T; lactam 4-C) | – | – | – | – | – | – | – | 4 (≈ 3.35 µM) | 1 (≈ 0.837 µM) | 1 (≈ 0.837 µM) | >32 | 1 (≈ 0.837 µM) | 0.25 (≈ 0.209 µM) | 16 (≈ 13.4 µM) |
| CCC(C)CC(=O)OCCSC[C@@H](N)C(=O)N[C@H](C(=O)N[C@@H](CCN)C(=O)N[C@H]1CCNC(=O)[C@H]([C@@H](C)O)NC(=O)[C@H](CCN)NC(=O)[C@H](CCN)NC(=O)[C@H](CC(C)C)NC(=O)[C@@H](Cc2ccccc2)NC(=O)[C@H](CCN)NC1=O)[C@@H](C)O (some centres unmarked) [Compound 97] (H-[dC](X10)T[Dab][Dab][Dab][dF]L[Dab][Dab]T; lactam 4-C) | – | – | – | – | – | – | – | 4 (≈ 3.31 µM) | 2 (≈ 1.65 µM) | 2 (≈ 1.65 µM) | >32 | 1 (≈ 0.827 µM) | 1 (≈ 0.827 µM) | 16 (≈ 13.2 µM) |
